# Like-named read-outs stand apart in the source and are kept apart here.
# System: CNR2
# Assay: Gene expression custom microarray, human skin fibroblasts (Example 1): CNR2
# Assay type: cell-based
# Conditions: for fold induction at 10 µM: Skin fibroblast, read-out: CNR2↑ gene expression, fold increase or decrease vs untreated cells
# Description: Cell cultures: A human skin fibroblast cell culture (or cultures) was obtained through the Coriell Cell Repository from the National Institute on Aging Cell Repository (Camden, N.J.), or Promocell GmbH (Heidelberg, Germany). The initial culture was selected from the following cell lines: AG13066, AG11557, AG11796 or GM03651E. The cell lines were derived from donors as follows:
# Experimental phase: When the appropriate quantity of cells had been grown, they were detached as described above, but at the final step were seeded into each well of one or more 6 well dishes. Each well received 2 ml of the cell suspension so they were seeded equally. The dishes were returned to the incubator until 85-95% confluency was reached.
# It is at this stage that all wells were rinsed in PBS after aspirating the growth media. The compound(s) to be tested were previously mixed into a suitable solvent (e.g., DMSO or ethanol) that can be diluted to the desired concentration of test compound (10 μl) in the culture wells without exceeding maximum solvent concentrations and adversely effecting cell viability, and mixed with basal media. NOTE: Standard maximum levels of solvent are 0.1% for DMSO and 0.5% for ETOH. The concentration of each test compound is found in Tables 1 & 2.
# Every 2 wells on the 6 well plate served as a biological replicate for the purposes of RNA isolation and genetic expression evaluations making each 6 well dish an n=3 for the test compound(s) contained in the media. Negative control plates (no test compound(s) and only basal media) were also generated. The plates were returned to the incubator for 24 hrs.
# At the end of the 24 hr time period, the plates were removed from the incubator, the test media aspirated, and the cells rinsed with PBS. RNA isolation is performed using the BioRad Aurum Total RNA Mini Kit (Hercules, Calif.) per manufacturer's protocol; which is described, in brief, below: • Add 350 μl of lysis buffer to each well. Pipet multiple times to ensure thorough lysis. Add lysed cells to the collection tube. • Add 350 μl of 70% ETOH to the collection tube and mix thoroughly. • Pipet the generated lysate onto the spin column placed in a new 2 ml tube. Centrifuge for 30 sec between 8,000 and 10,000 g. • Place the spin column containing the now bound RNA, in a new 2 ml tube. Add 700 μl of low stringency wash solution to the spin column. Centrifuge for 30 sec between 8,000 and 10,000 g. Discard the flow through and replace spin column. • Add 80 μl of DNase I dilution to the spin column and incubate at room temperature for 15 minutes. • Add 700 μl of high stringency wash solution to the column and centrifuge for 30 sec between 8,000 and 10,000 g. Discard flow through. • Add 700 μl of low stringency wash solution to the column and centrifuge for 60 sec between 8,000 and 10,000 g. Discard flow through. • Centrifuge for 2 minutes to remove residual wash solution. • Transfer spin column to new 1.5 ml collection tube and add 80 μl of elution solution to the column. Allow 1 minute for saturation of the membrane and then centrifuge for 2 minutes to complete the RNA elution. • Quantify the quantity of RNA and store at −20 C° until use (no more than 1 month)
# The genes tested were: • Cannabinoid receptor 1 (CB1(CNR1)) • Cannabinoid receptor 2 (CB2 (CNR2)) • Fatty acid amide hydrolase (FAAH) • Monoacylglycerol lipase (MGLL, i.e., MAGL) • Peroxisome proliferator-activated receptor gamma (PPARG) • Nuclear factor kappa-light-chain-enhancer of activated B cells (NFκβ) • Interleukin 1 Alpha (IL1alpha) • Cyclooxygenase 1 (PTGS1, i.e., COX1) • Transient receptor potential cation channel subfamily A member 1 (TRPA1) • Transient receptor potential cation channel subfamily V member 1 (TRPV1) • Transient receptor potential cation channel subfamily M member 8 (TRPM8) • Hemoglobin Subunit Beta (HBB) REFERENCE GENE • Ribosomal Protein L13a (RPL13A) REFERENCE GENE […]
# [1] = human skin fibroblasts, 10 uM, 24 hr
smiles,measurement,setting,value
"C=C(C)[C@@H]1CCC(C)=C[C@H]1c1c(O)cc(CCCCC)cc1O [CBD, cannabidiol, reference compound]",fold induction at 10 µM,"Homo sapiens, 24 h",1.7
CCCCCCCCCCCCCCCC(=O)NCCO [N-palmitoylethanolamide],"CNR2↑ gene expression, fold increase or decrease vs untreated cells",[1],3.9 fold
CC(C)[C@]12O[C@H]1[C@@H]1O[C@]13[C@]1(O[C@H]1C[C@H]1C4=C(CC[C@@]13C)C(=O)OC4)[C@@H]2O [Triptolide],fold induction at 10 µM,[1],10.1
